In the NIST ThermoML archive (doi:10.1021/je800463k):

Test: mn = molality of the nth substance listed, in mol/kg
Settings: 101 kPa, Liquid; for mass density: Pycnometric method; for electrical conductivity: Frequency=0.001 MHz, Alternating current cell with electrodes; for speed of sound: Frequency=2 MHz

O=[N+]([O-])[O-].O=[N+]([O-])[O-].[Mg+2] [magnesium nitrate] + CO
Settings	electrical conductivity [S/m]	mass density [kg/m3]	speed of sound [m/s]	viscosity [mPa·s]
308.75 K, m1 = 0.4555	–	824.82	–	–
308.75 K, m1 = 1.004	–	877.82	–	–
308.85 K, m1 = 1.492	–	927.12	–	–
309.1 K, m1 = 0.0082	–	775.87	–	–
309.4 K, m1 = 0.1047	–	789.92	–	–
309.75 K, m1 = 0.0545	–	782.89	–	–
309.75 K, m1 = 0.881	–	863.28	–	–
309.9 K, m1 = 0.2776	–	806.88	–	–
309.95 K, m1 = 1.259	–	904.15	–	–
310.1 K, m1 = 0.782	–	861.14	–	–
310.2 K, m1 = 0.0667	–	784.14	–	–
310.3 K, m1 = 1.71	–	944.04	–	–
310.4 K, m1 = 0.4024	–	818.47	–	–
310.45 K, m1 = 0.6276	–	841.27	–	–
310.65 K, m1 = 0.4555	–	823.17	–	–
310.7 K, m1 = 1.004	–	876	–	–
311.55 K, m1 = 1.875	–	953.58	–	–
311.6 K, m1 = 0.0082	–	773.44	–	–
311.7 K, m1 = 0.0667	–	782.46	–	–
311.9 K, m1 = 0.881	–	861.58	–	–
311.9 K, m1 = 1.259	–	902.37	–	–
312 K, m1 = 0.1047	–	787.42	–	–
312 K, m1 = 1.492	–	924.32	–	–
312.1 K, m1 = 0.4024	–	816.76	–	–
312.2 K, m1 = 0.4555	–	821.41	–	–
312.25 K, m1 = 0.6276	–	839.48	–	–
312.3 K, m1 = 0.0545	–	780.41	–	–
312.45 K, m1 = 1.71	–	942.18	–	–
312.5 K, m1 = 0.2776	–	804.41	–	–
312.85 K, m1 = 0.782	–	858.54	–	–
313.15 K, m1 = 0.0082	0.1573	–	1059.8	0.4543
313.15 K, m1 = 0.0545	0.4382	–	1066.6	0.483
313.15 K, m1 = 0.0667	0.4799	–	1067.2	0.4662
313.15 K, m1 = 0.1047	0.6326	–	1072.3	0.5128
313.15 K, m1 = 0.2776	1.215	–	1090.3	0.5885
313.15 K, m1 = 0.4024	1.537	–	1099.9	0.6799
313.15 K, m1 = 0.4555	1.625	–	1105.5	0.7062
313.15 K, m1 = 0.6276	1.951	–	1123.8	0.8707
313.15 K, m1 = 0.782	2.183	–	1140.7	0.9902
313.15 K, m1 = 0.881	2.262	–	1147.3	0.9936
313.15 K, m1 = 0.9116	2.287	–	1150.2	1.038
313.15 K, m1 = 1.004	2.39	–	1164.5	1.124
313.15 K, m1 = 1.259	2.502	–	1183.5	1.536
313.15 K, m1 = 1.492	2.545	–	1210.2	1.837
313.15 K, m1 = 1.71	2.587	–	1231.4	2.169
313.15 K, m1 = 1.875	2.567	–	1240.4	2.45
313.3 K, m1 = 0.0667	–	780.84	–	–
313.65 K, m1 = 1.004	–	873.36	–	–
313.7 K, m1 = 1.875	–	951.61	–	–
313.85 K, m1 = 0.4024	–	815.07	–	–
313.95 K, m1 = 0.0545	–	778.79	–	–
314 K, m1 = 0.0082	–	771.07	–	–
314.25 K, m1 = 1.492	–	922.37	–	–
314.4 K, m1 = 0.1047	–	784.98	–	–
314.6 K, m1 = 1.71	–	940.19	–	–
314.7 K, m1 = 0.881	–	858.85	–	–
314.8 K, m1 = 0.4555	–	818.87	–	–
314.85 K, m1 = 1.259	–	899.51	–	–
314.9 K, m1 = 0.6276	–	836.88	–	–
315.1 K, m1 = 0.2776	–	801.88	–	–
315.45 K, m1 = 0.4024	–	813.41	–	–
315.65 K, m1 = 0.0667	–	778.45	–	–
315.65 K, m1 = 0.782	–	855.81	–	–
315.8 K, m1 = 1.875	–	949.71	–	–
315.95 K, m1 = 0.1047	–	783.38	–	–
316.35 K, m1 = 0.0545	–	776.41	–	–
316.5 K, m1 = 0.4555	–	817.2	–	–
316.6 K, m1 = 0.881	–	857.07	–	–
316.6 K, m1 = 1.004	–	870.6	–	–
316.65 K, m1 = 0.6276	–	835.18	–	–
316.75 K, m1 = 1.259	–	897.65	–	–
317.35 K, m1 = 0.2776	–	799.43	–	–
317.35 K, m1 = 1.492	–	919.48	–	–
317.5 K, m1 = 0.782	–	854.04	–	–
317.8 K, m1 = 1.875	–	947.68	–	–
317.85 K, m1 = 1.71	–	937.24	–	–
318.15 K, m1 = 0.0082	–	–	1044.1	–
318.15 K, m1 = 0.0545	–	–	1045.1	–
318.15 K, m1 = 0.0667	–	–	1051.1	–
318.15 K, m1 = 0.1047	–	–	1056.1	–
318.15 K, m1 = 0.2776	–	–	1074.8	–
318.15 K, m1 = 0.4024	–	–	1083.3	–
318.15 K, m1 = 0.4555	–	–	1089.9	–
318.15 K, m1 = 0.6276	–	–	1108	–
318.15 K, m1 = 0.782	–	–	1124.4	–
318.15 K, m1 = 0.881	–	–	1131.9	–
318.15 K, m1 = 0.9116	–	–	1134	–
318.15 K, m1 = 1.004	–	–	1148.2	–
318.15 K, m1 = 1.259	–	–	1167.6	–
318.15 K, m1 = 1.492	–	–	1193.9	–
318.15 K, m1 = 1.71	–	–	1216.4	–
318.15 K, m1 = 1.875	–	–	1225.2	–
319.3 K, m1 = 0.881	–	854.45	–	–
319.45 K, m1 = 1.004	–	867.87	–	–
319.55 K, m1 = 1.259	–	894.9	–	–
320.2 K, m1 = 1.492	–	916.67	–	–
320.25 K, m1 = 0.782	–	851.43	–	–
320.75 K, m1 = 1.875	–	944.75	–	–
320.9 K, m1 = 1.71	–	934.37	–	–
323.15 K, m1 = 0.0082	–	–	1027.3	–
323.15 K, m1 = 0.0545	–	–	1033.4	–
323.15 K, m1 = 0.0667	–	–	1035.4	–
323.15 K, m1 = 0.1047	–	–	1039.7	–
323.15 K, m1 = 0.2776	–	–	1058.3	–
323.15 K, m1 = 0.4024	–	–	1067.5	–
323.15 K, m1 = 0.4555	–	–	1076.2	–
323.15 K, m1 = 0.6276	–	–	1093.5	–
323.15 K, m1 = 0.782	–	–	1108.6	–
323.15 K, m1 = 0.881	–	–	1115.5	–
323.15 K, m1 = 0.9116	–	–	1119.3	–
323.15 K, m1 = 1.004	–	–	1133.8	–
323.15 K, m1 = 1.259	–	–	1151.8	–
323.15 K, m1 = 1.492	–	–	1177.5	–
323.15 K, m1 = 1.71	–	–	1199	–
323.15 K, m1 = 1.875	–	–	1209.5	–
